Laboratory results taken from US11214594B2, “Antimicrobial peptide having synergistic antibacterial effect with antibiotics on multidrug resistant bacteria, and use thereof” (priority 2016, dated 2022).
In brackets after ≈: the same amount, converted by molar mass. Where a SMILES comes first, the peptide text is derived from it.

Key:
MRSA 3126 = assay type: cell-based, Staphylococcus aureus; conditions: 3126
Summary of the method: (§1)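 MIC read-out = lowest peptide level with no bacterial proliferation. Strains diluted in MH medium to 2×10^6 CFU; peptide twofold serial dilutions in MH added 1:1 in microtiter wells.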

MDRST 8007 = experiment: Minimal inhibitory concentration (MIC), single agent; assay type: cell-based, Salmonella typhimurium; conditions: agent alone
Summary of the method: as §1

E. coli [1] = experiment: MIC of antibiotic during combined treatment with antimicrobial peptide; assay type: cell-based, Escherichia coli; conditions: for Antibiotic MIC, Erythromycin / Antibiotic MIC, Linezolid / Antibiotic MIC, Vancomycin: E. coli
Summary of the method: (§2)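 Checkerboard-type MIC of peptide–antibiotic mixtures in MH medium: the antibiotic was serially diluted in MH medium and added to wells, then the reversed arrangement was also tested.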

E. coli [2] = experiment: microbe, parasite or virus in culture; assay type: cell-based, Escherichia coli; conditions: 16 h
Summary of the method: as §1

MDREC 1229 = experiment: microbe, parasite or virus in culture; assay type: cell-based, Escherichia coli
Summary of the method: as §1

P. aeruginosa = experiment: microbe, parasite or virus in culture; assay type: cell-based, Pseudomonas aeruginosa
Summary of the method: as §1

A. baumannii = experiment: MIC of antibiotic during combined treatment with antimicrobial peptide; assay type: cell-based, Acinetobacter baumannii; conditions: for Antibiotic MIC, Erythromycin / Antibiotic MIC, Linezolid / Antibiotic MIC, Vancomycin: A. baumannii
Summary of the method: as §2

[3] = combined with peptide at 1 μg/ml
[4] = combined with peptide at 2 μg/ml
[5] = combined with peptide at 4 μg/ml
[6] = combined with peptide at 6 μg/ml
[7] = combined with peptide at 8 μg/ml
[8] = combined with peptide at 16 μg/ml
[9] = combined with peptide at 32 μg/ml
[10] = combined with peptide at 64 μg/ml

**Q.** Which “Minimal inhibitory concentration MIC” value (MRSA 3126) does the source give for `CC[C@H](C)[C@H](NC(=O)[C@H](CCCCN)NC(=O)[C@H](Cc1c[nH]c2ccccc12)NC(=O)[C@@H](N)CCCNC(=N)N)C(=O)N[C@@H](Cc1ccccc1)C(=O)N[C@@H](CCCCN)C(=O)N[C@@H](CCCCN)C(=O)N[C@H](C(=O)N1CCC[C@H]1C(=O)N[C@@H](CCCCN)C(=O)N[C@@H](Cc1ccccc1)C(=O)N[C@@H](CC(C)C)C(=O)N[C@@H](Cc1c[nH]cn1)C(=O)N[C@@H](CO)C(=O)N[C@@H](Cc1c[nH]c2ccccc12)C(=O)N[C@@H](CCCCN)C(=O)N[C@@H](CCCCN)C(=O)N[C@@H](Cc1ccccc1)C(N)=O)[C@@H](C)CC` [PapMA-3, RWK IFK KIP KFL HSW KKF-NH2] (H-RWKIFKKIPKFLHSWKKF-NH2; N-terminus assumed) here?
**A.** The value was >128 µg/mL.

**Q.** What about the “Minimal inhibitory concentration MIC” value (MDRST 8007) of the same compound?
**A.** Its value is 32 µg/mL (≈ 13.2 µM).

**Q.** What about the “Synergistic effect of antibacterial activity with existing antibiotics compared with PapMA-1” value (E. coli [1]; E. coli and MDREC1229) of the same compound?
**A.** Its value is “level similar to that of the PapMA-1 peptide”.

**Q.** And the “Antibiotic MIC, Erythromycin” value (E. coli [1]; erythromycin combined with peptide at 1 μg/ml)?
**A.** Its value is 64 µg/mL.

**Q.** What about the “Antibiotic MIC, Erythromycin” value (E. coli [1]; erythromycin combined with peptide at 2 μg/ml) of the same compound?
**A.** Its value is 32 µg/mL.

**Q.** And the “Antibiotic MIC, Erythromycin” value (E. coli [1]; erythromycin combined with peptide at 4 μg/ml)?
**A.** Its value is 16 µg/mL.

**Q.** And the “Antibiotic MIC, Erythromycin” value (E. coli [1]; erythromycin combined with peptide at 6 μg/ml)?
**A.** The value was 4 µg/mL.

**Q.** What about the “Antibiotic MIC, Erythromycin” value (E. coli [1]; erythromycin combined with peptide at 8 μg/ml) of the same compound?
**A.** The value was 1 µg/mL.

**Q.** What about the “Antibiotic MIC, Erythromycin” value (E. coli [1]; erythromycin combined with peptide at 16 μg/ml) of the same compound?
**A.** Its value is 0.125 µg/mL.

**Q.** And the “Antibiotic MIC, Erythromycin” value (E. coli [1]; erythromycin combined with peptide at 32 μg/ml)?
**A.** Its value is 0 µg/mL.

**Q.** And the “Antibiotic MIC, Erythromycin” value (E. coli [1]; erythromycin combined with peptide at 64 μg/ml)?
**A.** Its value is 0 µg/mL.

**Q.** What about the “Antibiotic MIC, Linezolid” value (E. coli [1]; linezolid combined with peptide at 1 μg/ml) of the same compound?
**A.** Its value is 128 µg/mL.

**Q.** What about the “Antibiotic MIC, Linezolid” value (E. coli [1]; linezolid combined with peptide at 2 μg/ml) of the same compound?
**A.** The value was 64 µg/mL.

**Q.** And the “Antibiotic MIC, Linezolid” value (E. coli [1]; linezolid combined with peptide at 4 μg/ml)?
**A.** The value was 32 µg/mL.

**Q.** What about the “Antibiotic MIC, Linezolid” value (E. coli [1]; linezolid combined with peptide at 6 μg/ml) of the same compound?
**A.** The value was 32 µg/mL.

**Q.** What about the “Antibiotic MIC, Linezolid” value (E. coli [1]; linezolid combined with peptide at 8 μg/ml) of the same compound?
**A.** The value was 16 µg/mL.

**Q.** What about the “Antibiotic MIC, Linezolid” value (E. coli [1]; linezolid combined with peptide at 16 μg/ml) of the same compound?
**A.** The value was 2 µg/mL.

**Q.** What about the “Antibiotic MIC, Linezolid” value (E. coli [1]; linezolid combined with peptide at 32 μg/ml) of the same compound?
**A.** The value was 0 µg/mL.

**Q.** What about the “Antibiotic MIC, Linezolid” value (E. coli [1]; linezolid combined with peptide at 64 μg/ml) of the same compound?
**A.** Its value is 0 µg/mL.

**Q.** What about the “Antibiotic MIC, Vancomycin” value (E. coli [1]; vancomycin combined with peptide at 1 μg/ml) of the same compound?
**A.** Its value is >128 µg/mL.

**Q.** And the “Antibiotic MIC, Vancomycin” value (E. coli [1]; vancomycin combined with peptide at 2 μg/ml)?
**A.** Its value is >128 µg/mL.

**Q.** And the “Antibiotic MIC, Vancomycin” value (E. coli [1]; vancomycin combined with peptide at 4 μg/ml)?
**A.** The value was >128 µg/mL.

**Q.** And the “Antibiotic MIC, Vancomycin” value (E. coli [1]; vancomycin combined with peptide at 6 μg/ml)?
**A.** The value was 128 µg/mL.

**Q.** What about the “Antibiotic MIC, Vancomycin” value (E. coli [1]; vancomycin combined with peptide at 8 μg/ml) of the same compound?
**A.** The value was 32 µg/mL.

**Q.** What about the “Antibiotic MIC, Vancomycin” value (E. coli [1]; vancomycin combined with peptide at 16 μg/ml) of the same compound?
**A.** The value was 8 µg/mL.

**Q.** And the “Antibiotic MIC, Vancomycin” value (E. coli [1]; vancomycin combined with peptide at 32 μg/ml)?
**A.** Its value is 0 µg/mL.

**Q.** What about the “Antibiotic MIC, Vancomycin” value (E. coli [1]; vancomycin combined with peptide at 64 μg/ml) of the same compound?
**A.** The value was 0 µg/mL.

**Q.** And the “Minimal inhibitory concentration MIC” value (E. coli [2])?
**A.** The value was 32 µg/mL (≈ 13.2 µM).

**Q.** And the “Minimal inhibitory concentration MIC” value (MDREC 1229)?
**A.** Its value is 32 µg/mL (≈ 13.2 µM).

**Q.** And the “Minimal inhibitory concentration MIC” value (P. aeruginosa)?
**A.** Its value is 16 µg/mL (≈ 6.62 µM).

**Q.** And the “Synergistic effect of antibacterial activity with existing antibiotics compared with PapMA-1” value (A. baumannii; A. baumannii and MDRAB 12035)?
**A.** Its value is “higher level than the PapMA-1 peptide”.

**Q.** And the “Antibiotic MIC, Erythromycin” value (A. baumannii; [3])?
**A.** The value was 32 µg/mL.

**Q.** And the “Antibiotic MIC, Linezolid” value (A. baumannii; [3])?
**A.** Its value is >128 µg/mL.

**Q.** And the “Antibiotic MIC, Vancomycin” value (A. baumannii; [3])?
**A.** The value was >128 µg/mL.

**Q.** What about the “Antibiotic MIC, Erythromycin” value (A. baumannii; [4]) of the same compound?
**A.** Its value is 16 µg/mL.

**Q.** What about the “Antibiotic MIC, Linezolid” value (A. baumannii; [4]) of the same compound?
**A.** The value was 64 µg/mL.

**Q.** And the “Antibiotic MIC, Vancomycin” value (A. baumannii; [4])?
**A.** Its value is 128 µg/mL.

**Q.** What about the “Antibiotic MIC, Erythromycin” value (A. baumannii; [5]) of the same compound?
**A.** Its value is 8 µg/mL.

**Q.** What about the “Antibiotic MIC, Linezolid” value (A. baumannii; [5]) of the same compound?
**A.** Its value is 32 µg/mL.

**Q.** What about the “Antibiotic MIC, Vancomycin” value (A. baumannii; [5]) of the same compound?
**A.** The value was 64 µg/mL.

**Q.** And the “Antibiotic MIC, Erythromycin” value (A. baumannii; [6])?
**A.** Its value is 1 µg/mL.

**Q.** What about the “Antibiotic MIC, Linezolid” value (A. baumannii; [6]) of the same compound?
**A.** Its value is 16 µg/mL.

**Q.** What about the “Antibiotic MIC, Vancomycin” value (A. baumannii; [6]) of the same compound?
**A.** The value was 32 µg/mL.

**Q.** And the “Antibiotic MIC, Erythromycin” value (A. baumannii; [7])?
**A.** Its value is 0.125 µg/mL.

**Q.** And the “Antibiotic MIC, Linezolid” value (A. baumannii; [7])?
**A.** Its value is 8 µg/mL.

**Q.** And the “Antibiotic MIC, Vancomycin” value (A. baumannii; [7])?
**A.** Its value is 32 µg/mL.

**Q.** And the “Antibiotic MIC, Erythromycin” value (A. baumannii; [8])?
**A.** The value was 0 µg/mL.

**Q.** And the “Antibiotic MIC, Linezolid” value (A. baumannii; [8])?
**A.** The value was 0 µg/mL.

**Q.** What about the “Antibiotic MIC, Vancomycin” value (A. baumannii; [8]) of the same compound?
**A.** The value was 0 µg/mL.

**Q.** And the “Antibiotic MIC, Erythromycin” value (A. baumannii; [9])?
**A.** Its value is 0 µg/mL.

**Q.** What about the “Antibiotic MIC, Linezolid” value (A. baumannii; [9]) of the same compound?
**A.** Its value is 0 µg/mL.

**Q.** What about the “Antibiotic MIC, Vancomycin” value (A. baumannii; [9]) of the same compound?
**A.** The value was 0 µg/mL.

**Q.** What about the “Antibiotic MIC, Erythromycin” value (A. baumannii; [10]) of the same compound?
**A.** The value was 0 µg/mL.

**Q.** And the “Antibiotic MIC, Linezolid” value (A. baumannii; [10])?
**A.** The value was 0 µg/mL.

**Q.** What about the “Antibiotic MIC, Vancomycin” value (A. baumannii; [10]) of the same compound?
**A.** Its value is 0 µg/mL.
